Assay results: the supplement of paper PMC11451515

Tested on: P12-Ichikawa
Assay: cell viability relative to DMSO control; higher = less cytotoxic
Conditions: 48 h
How it was run: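 Cells were incubated for 48 h at 37°C before CellTiter-Glo One luminescence was read. The cells were NOMO1 or SEM (500 cells/well) or P12-Ichikawa (1000 cells/well) leukemia cells, adapted for at least four passages in each medium and seeded in 1536-well plates (5 μl). Dosing used library compounds in DMSO applied by pin over 11 threefold points, 47 μM to 0.79 nM. Viability is the per-plate percentage of DMSO wells, with cell-free wells as background.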

[1] = HPLM + 10% dialyzed FBS, 0.000781 µM
[2] = HPLM + 10% dialyzed FBS, 0.00234 µM
[3] = HPLM + 10% dialyzed FBS, 0.00702 µM
[4] = HPLM + 10% dialyzed FBS, 0.0211 µM
[5] = HPLM + 10% dialyzed FBS, 0.0632 µM
[6] = HPLM + 10% dialyzed FBS, 0.19 µM
[7] = HPLM + 10% dialyzed FBS, 0.569 µM
[8] = HPLM + 10% dialyzed FBS, 1.71 µM
[9] = HPLM + 10% dialyzed FBS, 5.12 µM
[10] = HPLM + 10% dialyzed FBS, 15.4 µM
[11] = HPLM + 10% dialyzed FBS, 46.1 µM
[12] = RPMI 5 mM glucose + 10% FBS, 0.000781 µM
[13] = RPMI 5 mM glucose + 10% FBS, 0.00234 µM
[14] = RPMI 5 mM glucose + 10% FBS, 0.00702 µM
[15] = RPMI 5 mM glucose + 10% FBS, 0.0211 µM
[16] = RPMI 5 mM glucose + 10% FBS, 0.0632 µM
[17] = RPMI 5 mM glucose + 10% FBS, 0.19 µM
[18] = RPMI 5 mM glucose + 10% FBS, 0.569 µM
[19] = RPMI 5 mM glucose + 10% FBS, 1.71 µM
[20] = RPMI 5 mM glucose + 10% FBS, 5.12 µM
[21] = RPMI 5 mM glucose + 10% FBS, 15.4 µM
[22] = RPMI 5 mM glucose + 10% FBS, 46.1 µM
[23] = RPMI 5 mM glucose + 10% dialyzed FBS, 0.000781 µM
[24] = RPMI 5 mM glucose + 10% dialyzed FBS, 0.00234 µM
[25] = RPMI 5 mM glucose + 10% dialyzed FBS, 0.00702 µM
[26] = RPMI 5 mM glucose + 10% dialyzed FBS, 0.0211 µM
[27] = RPMI 5 mM glucose + 10% dialyzed FBS, 0.0632 µM
[28] = RPMI 5 mM glucose + 10% dialyzed FBS, 0.19 µM
[29] = RPMI 5 mM glucose + 10% dialyzed FBS, 0.569 µM
[30] = RPMI 5 mM glucose + 10% dialyzed FBS, 1.71 µM
[31] = RPMI 5 mM glucose + 10% dialyzed FBS, 5.12 µM
[32] = RPMI 5 mM glucose + 10% dialyzed FBS, 15.4 µM
[33] = RPMI 5 mM glucose + 10% dialyzed FBS, 46.1 µM

Row | SMILES | cell viability [1] | cell viability [2] | cell viability [3] | cell viability [4] | cell viability [5] | cell viability [6] | cell viability [7] | cell viability [8] | cell viability [9] | cell viability [10] | cell viability [11] | cell viability [12] | cell viability [13] | cell viability [14] | cell viability [15] | cell viability [16] | cell viability [17] | cell viability [18] | cell viability [19] | cell viability [20] | cell viability [21] | cell viability [22] | cell viability [23] | cell viability [24] | cell viability [25] | cell viability [26] | cell viability [27] | cell viability [28] | cell viability [29] | cell viability [30] | cell viability [31] | cell viability [32] | cell viability [33]
1 | CC[N+](CC)(CC)CCOc1cccc(OCC[N+](CC)(CC)CC)c1OCC[N+](CC)(CC)CC | 116% | 109% | 101% | 107% | 127% | 120% | 98.9% | 91.6% | 100% | 107% | 97% | 124% | 115% | 112% | 124% | 114% | 115% | 107% | 108% | 111% | 110% | 103% | 108% | 101% | 108% | 109% | 120% | 109% | 100% | 104% | 103% | 95.2% | 100%
2 | CCOC(=O)[C@@]1(CCCCCCOc2ccc(Cl)cc2)CO1 | 113% | 108% | 117% | 114% | 112% | 113% | 111% | 105% | 105% | 95.2% | 7.68% | 108% | 115% | 114% | 117% | 118% | 111% | 107% | 110% | 115% | 104% | 12.1% | 121% | 123% | 125% | 122% | 114% | 111% | 116% | 107% | 113% | 107% | 20.8%
3 | CN(C)c1ccc2nc3ccc(N(C)C)cc3[s+]c2c1 | 99.5% | 105% | 109% | 105% | 109% | 113% | 111% | 102% | 59.7% | 10.9% | 3.04% | 95.6% | 106% | 96.7% | 109% | 110% | 124% | 115% | 98.5% | 60.3% | 8% | 2.12% | 91.4% | 106% | 98.2% | 96.4% | 104% | 116% | 114% | 94.9% | 71.3% | 12.8% | 2.16%
4 | C=C1C(=O)OC(CCCCCCCC)C1C(=O)O (centres undefined) | 105% | 116% | 113% | 122% | 123% | 122% | 124% | 121% | 129% | 120% | 115% | 124% | 120% | 123% | 132% | 129% | 122% | 137% | 132% | 128% | 129% | 128% | 107% | 116% | 122% | 129% | 124% | 123% | 133% | 131% | 133% | 128% | 113%
5 | CCC(C)N1\N=C/N(C1=O)C2=CC=C(C=C2)N3CCN(CC3)C4=CC=C(OC[C@H]5CO[C@@](C[N]6C=NC=N6)(O5)C7=CC=C(Cl)C=C7Cl)C=C4 (some centres undefined) | 99.9% | 109% | 114% | 120% | 111% | 115% | 101% | 101% | 103% | 98.8% | 104% | 111% | 111% | 119% | 114% | 108% | 115% | 115% | 99.7% | 108% | 110% | 97.2% | 111% | 113% | 108% | 111% | 113% | 111% | 106% | 105% | 100% | 98.5% | 95.7%
6 | O=C1CCC[C@@H]2[C@H]3CCCN4CCC[C@@H](CN12)[C@@H]34 | 78.4% | 85.5% | 83.3% | 87.4% | 96.1% | 92.1% | 83.1% | 88.2% | 92.5% | 98.1% | 93.4% | 83.7% | 83.6% | 77.8% | 87.6% | 88.9% | 85.7% | 76.3% | 86% | 79.3% | 87.6% | 75.7% | 74.9% | 79% | 79.7% | 81.8% | 86.8% | 83.7% | 80.1% | 86.2% | 76.9% | 84.7% | 80.9%
7 | CCOC(=O)C(C#N)C\1C2=CC(=CC=C2O\C(=C1C(=O)OCC)N)Br (centres undefined) | 100% | 103% | 108% | 92.8% | 103% | 103% | 99.1% | 104% | 105% | 94.6% | 75.7% | 104% | 102% | 106% | 88.5% | 106% | 117% | 103% | 102% | 97.9% | 90% | 89.4% | 101% | 99.1% | 105% | 83.9% | 94.9% | 105% | 102% | 92.7% | 101% | 95% | 80%
8 | CC(C)N(C[C@H]1O[C@@H](n2cnc3c(N)ncnc32)[C@H](O)[C@@H]1O)[C@H]1C[C@@H](CCc2nc3cc(C(C)(C)C)ccc3[nH]2)C1 | 87.7% | 93.6% | 101% | 98.2% | 99.2% | 103% | 103% | 12.9% | 11.5% | 11.6% | 2.23% | 90% | 96.5% | 103% | 99.2% | 95.4% | 105% | 102% | 103% | 108% | 92.7% | 1.91% | 96.2% | 100% | 103% | 104% | 96.5% | 97.6% | 113% | 99.2% | 31.4% | 31% | 1.74%
9 | OC1=CC=C(C=C1)\C2=C\OC3=C(C(=CC(=C3)O)O)C2=O | 107% | 114% | 112% | 118% | 114% | 116% | 119% | 118% | 118% | 117% | 122% | 103% | 104% | 116% | 107% | 116% | 126% | 116% | 125% | 115% | 115% | 85.9% | 103% | 105% | 108% | 112% | 119% | 114% | 120% | 116% | 95% | 113% | 69.5%
10 | COc1cc(CCc2cc(NC(=O)c3ccc(N4C[C@@H](C)N[C@@H](C)C4)cc3)n[nH]2)cc(OC)c1 | 124% | 136% | 118% | 130% | 123% | 121% | 120% | 119% | 109% | 107% | 90% |  |  |  |  |  |  |  |  |  |  |  |  |  |  |  |  |  |  |  |  |  | 
11 | C[C@@H]1CCN(C(=O)CC#N)C[C@@H]1N(C)c1ncnc2[nH]ccc12 | 97.1% | 87.1% | 82.4% | 91.3% | 86.7% | 88.5% | 86.2% | 87.7% | 77.5% | 84% | 78.6% | 81.9% | 85.6% | 83.6% | 86.3% | 95.5% | 85.2% | 92.4% | 88.2% | 87.6% | 82.1% | 81.9% | 81.9% | 80.6% | 84.7% | 81.8% | 79.4% | 79.4% | 78.7% | 76.4% | 78.2% | 72.1% | 73.8%
12 | N#CC(c1ccnc(NCCc2cccnc2)n1)c1nc2ccccc2s1 (centres undefined) | 115% | 128% | 120% | 127% | 127% | 134% | 131% | 121% | 141% | 141% | 118% |  |  |  |  |  |  |  |  |  |  |  | 122% | 136% | 122% | 145% | 142% | 152% | 151% | 148% | 140% | 133% | 120%
13 | CC(C)=CCC/C(C)=C/CC/C(C)=C/CC/C(C)=C/CC/C(C)=C/CC/C(C)=C/CC/C(C)=C/CC/C(C)=C/CC/C(C)=C/CO | 107% | 109% | 108% | 112% | 116% | 109% | 109% | 108% | 104% | 93.4% | 106% | 105% | 103% | 115% | 103% | 108% | 98.7% | 105% | 97.1% | 91.3% | 87.1% | 96.1% | 98.3% | 100% | 92.7% | 99.6% | 103% | 102% | 106% | 97.3% | 87.9% | 95.9% | 90.3%
14 | C[C@@H]1CN(Cc2ccc(F)cc2)[C@@H](C)CN1C(=O)c1cc2c(C(=O)C(=O)N(C)C)cn(C)c2cc1Cl | 111% | 118% | 118% | 128% | 115% | 123% | 125% | 125% | 125% | 125% | 108% | 110% | 114% | 111% | 126% | 122% | 124% | 132% | 113% | 124% | 117% | 107% | 119% | 132% | 117% | 124% | 122% | 130% | 124% | 127% | 123% | 118% | 117%
